Source: the NIST ThermoML archive (doi:10.1021/je060247x)

Details: Liquid

CCCCn1cc[n+](C)c1.O=S(=O)([O-])C(F)(F)F [1-butyl-3-methylimidazolium trifluoromethanesulfonate]
mass density [kg/m3]
Details | 100 kPa | 1000 kPa | 2000 kPa | 3000 kPa | 4000 kPa | 5000 kPa | 10000 kPa
293.15 K | 1306.1 | 1306.6 | 1307.1 | 1307.7 | 1308.2 | 1308.8 | 1311.5
303.15 K | 1296.6 | 1297.1 | 1297.7 | 1298.3 | 1298.9 | 1299.5 | 1302.3
313.15 K | 1287.6 | 1288.1 | 1288.7 | 1289.3 | 1289.9 | 1290.5 | 1293.3
323.15 K | 1278.7 | 1279.3 | 1280 | 1280.7 | 1281.3 | 1282 | 1285
333.15 K | 1270.5 | 1271.1 | 1271.7 | 1272.4 | 1273.1 | 1273.8 | 1276.9
343.15 K | 1262.5 | 1263.1 | 1263.8 | 1264.5 | 1265.2 | 1265.8 | 1269.1
353.15 K | 1254 | 1254.7 | 1255.3 | 1256 | 1256.7 | 1257.4 | 1260.7
363.15 K | 1246.8 | 1247.5 | 1248.3 | 1249 | 1249.7 | 1250.4 | 1253.8
373.15 K | 1239.6 | 1240.3 | 1241.1 | 1241.8 | 1242.5 | 1243.2 | 1246.6
383.15 K | 1232.4 | 1233.1 | 1233.9 | 1234.6 | 1235.4 | 1236.1 | 1239.7
393.15 K | 1225.3 | 1226.1 | 1226.8 | 1227.6 | 1228.4 | 1229.1 | 1232.7

CCCCn1cc[n+](C)c1.F[B-](F)(F)F [1-butyl-3-methylimidazolium tetrafluoroborate]
mass density [kg/m3]
Details | 100 kPa | 1000 kPa | 2000 kPa | 3000 kPa | 4000 kPa | 5000 kPa | 10000 kPa
293.15 K | 1206.9 | 1207.3 | 1207.7 | 1208.2 | 1208.7 | 1209.1 | 1211.3
303.15 K | 1198.6 | 1199.1 | 1199.6 | 1200.1 | 1200.7 | 1201.1 | 1203.5
313.15 K | 1190.8 | 1191.3 | 1191.8 | 1192.2 | 1192.7 | 1193.2 | 1195.5
323.15 K | 1183 | 1183.5 | 1184 | 1184.5 | 1185 | 1185.5 | 1187.8
333.15 K | 1175.8 | 1176.3 | 1176.9 | 1177.4 | 1177.9 | 1178.4 | 1181
343.15 K | 1168.4 | 1168.9 | 1169.3 | 1169.8 | 1170.3 | 1170.8 | 1173.1
353.15 K | 1161.3 | 1161.8 | 1162.4 | 1163 | 1163.5 | 1164.1 | 1166.6
363.15 K | 1154.7 | 1155.3 | 1155.8 | 1156.4 | 1156.9 | 1157.5 | 1160.1
373.15 K | 1148.2 | 1148.8 | 1149.3 | 1149.9 | 1150.4 | 1151 | 1153.6
383.15 K | 1142 | 1142.5 | 1143.1 | 1143.7 | 1144.3 | 1144.8 | 1147.6
393.15 K | 1136.1 | 1136.7 | 1137.3 | 1137.9 | 1138.4 | 1139 | 1141.9

CCCCCCCC[n+]1ccn(C)c1.F[P-](F)(F)(F)(F)F [1-octyl-3-methylimidazolium hexafluorophosphate]
mass density [kg/m3]
Details | 100 kPa | 1000 kPa | 2000 kPa | 3000 kPa | 4000 kPa | 5000 kPa | 10000 kPa
293.15 K | 1242.4 | 1242.9 | 1243.5 | 1244.1 | 1244.6 | 1245.1 | 1247.8
303.15 K | 1233.8 | 1234.4 | 1235 | 1235.6 | 1236.1 | 1236.7 | 1239.5
313.15 K | 1225.3 | 1225.9 | 1226.5 | 1227.1 | 1227.7 | 1228.3 | 1231.1
323.15 K | 1217.6 | 1218.2 | 1218.8 | 1219.4 | 1220 | 1220.6 | 1223.4
333.15 K | 1209.1 | 1209.7 | 1210.3 | 1211 | 1211.6 | 1212.2 | 1215.1
343.15 K | 1201 | 1201.6 | 1202.3 | 1203 | 1203.6 | 1204.3 | 1207.4
353.15 K | 1193.6 | 1194.3 | 1195 | 1195.7 | 1196.3 | 1197.1 | 1200.3
363.15 K | 1186.2 | 1186.9 | 1187.6 | 1188.3 | 1189 | 1189.7 | 1193
373.15 K | 1179.2 | 1179.9 | 1180.6 | 1181.3 | 1182 | 1182.7 | 1186.1
383.15 K | 1172.7 | 1173.5 | 1174.2 | 1174.9 | 1175.6 | 1176.3 | 1179.8
393.15 K | 1166 | 1166.8 | 1167.5 | 1168.3 | 1169.1 | 1169.8 | 1173.5
